{"source": "patent US20230126310A1", "about": "(priority 2020, published 2023)", "system": "SARS-CoV-2", "assay": "microbe, parasite or virus in culture", "settings": "Severe acute respiratory syndrome coronavirus 2, Caco-2, 48 h; for inhibition at 10 µM: read-out: % Inh. (% Inhibition of SARS-CoV-2)", "note": "Counter-ions that a name gives are not always drawn. Like-named read-outs stand apart in the source and are kept apart here. Peptide text beside a SMILES is read from it.", "data": [{"smiles": "O=C(NO)c1cnc(N2CCN(S(=O)(=O)c3ccc4ccccc4c3)CC2)nc1", "note": "[R306465]", "values": [{"measurement": "inhibition at 10 µM", "result": 57.3, "unit": "%"}]}, {"smiles": "Clc1ccc(C(Cn2ccnc2)OCc2csc3c(Cl)cccc23)c(Cl)c1", "note": "(stereo not drawn) [Sertaconazole nitrate]", "values": [{"measurement": "inhibition at 10 µM", "result": 88.9, "unit": "%"}]}, {"smiles": "Cc1ccccc1-n1c(CF)nc2ccc(N)cc2c1=O", "note": "[Afloqualone]", "values": [{"measurement": "inhibition at 10 µM", "result": 50.1, "unit": "%"}]}, {"smiles": "C1CCC(C(CC2CCCCN2)C2CCCCC2)CC1", "note": "(stereo not drawn) [PERHEXILINE MALEATE]", "values": [{"measurement": "inhibition at 10 µM", "result": 55.4, "unit": "%"}]}, {"smiles": "Cc1[nH]cnc1-c1ccc(Cl)cc1", "note": "[lofemizole]", "values": [{"measurement": "inhibition at 10 µM", "result": 56.3, "unit": "%"}]}, {"smiles": "Cc1cc(N)c2ccccc2[n+]1CCCCCCCCCC[n+]1c(C)cc(N)c2ccccc21", "note": "[DEQUALINIUM CHLORIDE]", "values": [{"measurement": "inhibition at 10 µM", "result": 65.6, "unit": "%"}]}, {"smiles": "Nc1ccccc1C(=O)O", "note": "[anthranilic-acid]", "values": [{"measurement": "inhibition at 10 µM", "result": 50, "unit": "%"}]}, {"smiles": "OC[C@H]1O[C@@H](n2cnc3c(NC4CCCC4)nc(Cl)nc32)[C@H](O)[C@@H]1O", "note": "[2-chloro-N6-cyclopentyladenosine]", "values": [{"measurement": "inhibition at 10 µM", "result": 57.7, "unit": "%"}]}, {"smiles": "C#Cc1cccc(Nc2ncnc3cc4c(cc23)OCCOCCOCCO4)c1", "note": "[Icotinib]", "values": [{"measurement": "inhibition at 10 µM", "result": 68.1, "unit": "%"}]}, {"smiles": "CC(O)COC[C@H]1O[C@@H]2O[C@H]3[C@H](O)[C@@H](O)[C@@H](O[C@H]4[C@H](O)[C@@H](O)[C@@H](O[C@H]5[C@H](O)[C@@H](O)[C@@H](O[C@H]6[C@H](O)[C@@H](O)[C@@H](O[C@H]7[C@H](O)[C@@H](O)[C@@H](O[C@H]8[C@H](O)[C@@H](O)[C@@H](O[C@H]1[C@H](O)[C@H]2O)O[C@@H]8COCC(C)O)O[C@@H]7COCC(C)O)O[C@@H]6COCC(C)O)O[C@@H]5COCC(C)O)O[C@@H]4COCC(C)O)O[C@@H]3COCC(C)O", "note": "(stereo partly drawn) [hydroxypropyl-beta-cyclodextrin]", "values": [{"measurement": "inhibition at 10 µM", "result": 56.5, "unit": "%"}]}, {"smiles": "CC(=O)OCC1=C(C(=O)O)N2C(=O)[C@@H](NC(=O)Cc3cccs3)[C@H]2SC1", "note": "[Cephalothin]", "values": [{"measurement": "inhibition at 10 µM", "result": 53.7, "unit": "%"}]}, {"smiles": "c1ccc2c(c1)[I+]c1ccccc1-2", "note": "[diphenyleneiodonium]", "values": [{"measurement": "inhibition at 10 µM", "result": 55.5, "unit": "%"}]}, {"smiles": "COc1ccc(Cc2nccc3cc(OC)c(OC)cc23)cc1OC", "note": "[PAPAVERINE HYDROCHLORIDE]", "values": [{"measurement": "IC50", "result": 0.95, "unit": "µM"}, {"measurement": "IC50", "setting": "read-out: pIC50 (converted)", "result": 0.955, "unit": "µM"}]}, {"smiles": "CCCn1c(=O)c2[nH]c(-c3ccccc3)nc2n(CCC)c1=O", "note": "[1,3-dipropyl-8-phenylxanthine]", "values": [{"measurement": "inhibition at 10 µM", "result": 57.2, "unit": "%"}]}, {"smiles": "Cc1c(O)cccc1C(=O)N[C@@H](CSc1ccccc1)[C@H](O)CN1C[C@H]2CCCC[C@H]2C[C@H]1C(=O)NC(C)(C)C", "note": "[Nelfinavir Mesylate]", "values": [{"measurement": "IC50", "result": 2.65, "unit": "µM"}, {"measurement": "inhibition at 10 µM", "result": 88.6, "unit": "%"}, {"measurement": "IC50", "setting": "read-out: pIC50 (converted)", "result": 2.63, "unit": "µM"}]}, {"smiles": "CCCC1O[C@@H]2C[C@H]3[C@@H]4CCC5=CC(=O)C=C[C@]5(C)[C@H]4[C@@H](O)C[C@]3(C)[C@]2(C(=O)CO)O1", "note": "(stereo partly drawn) [budesonide]", "values": [{"measurement": "inhibition at 10 µM", "result": 74.4, "unit": "%"}]}, {"smiles": "CC(C)(C)NC[C@H](O)COc1cccc2c1CCCC2=O", "note": "[levobunolol]", "values": [{"measurement": "inhibition at 10 µM", "result": 64.5, "unit": "%"}]}, {"smiles": "CCN(CC)CCO[C@H]1CC[C@@]2(C)C(=CC[C@@H]3[C@@H]2CC[C@]2(C)C(=O)CC[C@@H]32)C1", "note": "[U-18666A]", "values": [{"measurement": "inhibition at 10 µM", "result": 77.4, "unit": "%"}]}, {"smiles": "CCOc1cc2ncc(C#N)c(Nc3ccc(OCc4cccc(F)c4)c(Cl)c3)c2cc1NC(=O)/C=C/CN(C)C", "note": "[HKI-357]", "values": [{"measurement": "inhibition at 10 µM", "result": 77.7, "unit": "%"}]}, {"smiles": "COC(=O)C1=C(C)NC(C)=C(C(=O)OCCCN2CCC(c3ccccc3)(c3ccccc3)CC2)[C@@H]1c1cccc([N+](=O)[O-])c1", "note": "[dexniguldipine]", "values": [{"measurement": "IC50", "result": 35.8, "unit": "µM"}, {"measurement": "inhibition at 10 µM", "result": 97.6, "unit": "%"}, {"measurement": "IC50", "setting": "read-out: pIC50 (converted)", "result": 35.5, "unit": "µM"}]}, {"smiles": "CCN1CCN(Cc2ccc(-c3cc4c(N[C@H](C)c5ccccc5)ncnc4[nH]3)cc2)CC1", "note": "[AEE788]", "values": [{"measurement": "inhibition at 10 µM", "result": 90.9, "unit": "%"}]}, {"smiles": "O=C(Nc1cc(Cl)cc(Cl)c1O)c1c(O)c(Cl)cc(Cl)c1Cl", "note": "[OXYCLOZANIDE]", "values": [{"measurement": "inhibition at 10 µM", "result": 94.4, "unit": "%"}]}, {"smiles": "Cc1c(CN2CCN(C(=O)[C@H](C)O)CC2)sc2c(N3CCOCC3)nc(-c3cnc(N)nc3)nc12", "note": "[Apitolisib (GDC-0980, RG7422), Apitolisib]", "values": [{"measurement": "inhibition at 10 µM", "result": 102, "unit": "%"}]}, {"smiles": "C=CC(=O)Nc1cccc(Nc2nc(Nc3ccc(N4CCN(C(C)=O)CC4)cc3OC)ncc2C(F)(F)F)c1", "note": "[Rociletinib (CO-1686, AVL-301), Rociletinib]", "values": [{"measurement": "inhibition at 10 µM", "result": 84.9, "unit": "%"}]}, {"smiles": "CCc1cc2cc(OC)c(OC)cc2c(Cc2ccccc2)n1", "note": "[Moxaverine]", "values": [{"measurement": "inhibition at 10 µM", "result": 68.7, "unit": "%"}]}, {"smiles": "O=C(O)c1ccccc1O", "note": "[SALICYLIC ACID]", "values": [{"measurement": "inhibition at 10 µM", "result": 71.3, "unit": "%"}]}, {"smiles": "O=c1[nH]c2ccccc2n1C1CCN(CCOc2ccccc2)CC1", "note": "[oxiperomide]", "values": [{"measurement": "inhibition at 10 µM", "result": 77.9, "unit": "%"}]}, {"smiles": "CNCC(O)c1ccc(OC(=O)C(C)(C)C)c(OC(=O)C(C)(C)C)c1", "note": "(stereo not drawn) [dipivefrine]", "values": [{"measurement": "inhibition at 10 µM", "result": 54, "unit": "%"}]}, {"smiles": "Cc1cc(C)c2c(c1)[C@@H](N(Cc1cc(C(F)(F)F)cc(C(F)(F)F)c1)c1nnn(C)n1)CCCN2C[C@H]1CC[C@H](C(=O)O)CC1", "note": "[Evacetrapib (LY2484595), Evacetrapib]", "values": [{"measurement": "IC50", "result": 26.7, "unit": "µM"}, {"measurement": "inhibition at 10 µM", "result": 94.9, "unit": "%"}, {"measurement": "IC50", "setting": "read-out: pIC50 (converted)", "result": 26.9, "unit": "µM"}]}, {"smiles": "Cc1nc(Nc2ccc(F)cc2)nc(N2CCc3ccccc3C2C)c1C", "note": "(stereo not drawn) [Revaprazan Hydrochloride]", "values": [{"measurement": "inhibition at 10 µM", "result": 90.9, "unit": "%"}]}, {"smiles": "C[C@H]1C[C@H]2[C@@H]3CCC4=CC(=O)C=C[C@]4(C)[C@@]3(F)[C@@H](O)C[C@]2(C)[C@@]1(O)C(=O)CO", "note": "[BETAMETHASONE]", "values": [{"measurement": "inhibition at 10 µM", "result": 50.6, "unit": "%"}]}, {"smiles": "Cc1cc(Nc2ncc(Cl)c(Nc3ccccc3S(=O)(=O)C(C)C)n2)c(OC(C)C)cc1C1CCNCC1", "note": "[Ceritinib]", "values": [{"measurement": "inhibition at 10 µM", "result": 60, "unit": "%"}]}, {"smiles": "CC(=O)Nc1cccc(-n2c(=O)n(C3CC3)c(=O)c3c(Nc4ccc(I)cc4F)n(C)c(=O)c(C)c32)c1", "note": "[Trametinib]", "values": [{"measurement": "inhibition at 10 µM", "result": 76.6, "unit": "%"}]}, {"smiles": "CN1CCc2cc3c(cc2C1O)OCO3", "note": "(stereo not drawn) [HYDRASTININE HYDROCHLORIDE]", "values": [{"measurement": "inhibition at 10 µM", "result": 56.3, "unit": "%"}]}, {"smiles": "CC(C)C[C@H](NC(=O)[C@@H]1CCCN1)C(=O)NCC(N)=O", "note": "[prolylleucylglycinamide] (H-Pro-Leu-Gly-NH2)", "values": [{"measurement": "inhibition at 10 µM", "result": 70.6, "unit": "%"}]}, {"smiles": "CCCCN(CC)c1nc(C)nc2c1c(C)c(C)n2-c1c(C)cc(C)cc1C", "note": "[antalarmin]", "values": [{"measurement": "inhibition at 10 µM", "result": 59, "unit": "%"}]}, {"smiles": "CC(=O)OCC(=O)[C@@]1(O)CC[C@H]2[C@@H]3CCC4=CC(=O)C=C[C@]4(C)[C@@]3(F)[C@@H](O)C[C@@]21C", "note": "[isoflupredone-acetate]", "values": [{"measurement": "inhibition at 10 µM", "result": 80.6, "unit": "%"}]}, {"smiles": "O=C(O)CCCCC(=O)O", "note": "[adipic-acid]", "values": [{"measurement": "inhibition at 10 µM", "result": 55.9, "unit": "%"}]}, {"smiles": "CC1(C)S[C@@H]2[C@H](N3C(=O)[C@@H](c4ccccc4)NC3(C)C)C(=O)N2[C@H]1C(=O)O", "note": "[HETACILLIN POTASSIUM]", "values": [{"measurement": "inhibition at 10 µM", "result": 67.1, "unit": "%"}]}, {"smiles": "CCNC(=O)c1noc(-c2cc(C(C)C)c(O)cc2O)c1-c1ccc(CN2CCOCC2)cc1", "note": "[Luminespib]", "values": [{"measurement": "inhibition at 10 µM", "result": 104, "unit": "%"}]}, {"smiles": "OC1(c2ccc(Cl)c(C(F)(F)F)c2)CCN(CCCC(c2ccc(F)cc2)c2ccc(F)cc2)CC1", "note": "[PENFLURIDOL]", "values": [{"measurement": "inhibition at 10 µM", "result": 85.9, "unit": "%"}]}, {"smiles": "c1ccc(OCc2ccc(CCCN3CCOCC3)cc2)cc1", "note": "[Fomocain]", "values": [{"measurement": "inhibition at 10 µM", "result": 61.1, "unit": "%"}]}, {"smiles": "COc1ccc(NC(=O)c2ccc(-c3ccc(-c4noc(C)n4)cc3C)cc2)cc1N1CCN(C)CC1", "note": "[GR-127935]", "values": [{"measurement": "inhibition at 10 µM", "result": 53.7, "unit": "%"}]}, {"smiles": "N=C(N)c1ccc(OCCCCCOc2ccc(C(=N)N)cc2)cc1", "note": "[PENTAMIDINE ISETHIONATE]", "values": [{"measurement": "inhibition at 10 µM", "result": 54.6, "unit": "%"}]}, {"smiles": "c1ccc(C(O[C@@H]2CCCN(CCc3ccc4c(c3)OCO4)C2)c2ccccc2)cc1", "note": "[zamifenacin]", "values": [{"measurement": "inhibition at 10 µM", "result": 58.3, "unit": "%"}]}, {"smiles": "C[N+](C)(C)CC(=O)O", "note": "[BETAINE HYDROCHLORIDE]", "values": [{"measurement": "inhibition at 10 µM", "result": 95.7, "unit": "%"}]}, {"smiles": "COC(=O)Nc1nc2ccc(C(=O)c3cccs3)cc2[nH]1", "note": "[nocodazole]", "values": [{"measurement": "inhibition at 10 µM", "result": 66.1, "unit": "%"}]}, {"smiles": "CNCCCOc1cc(F)c(-c2c(Cl)nc3ncnn3c2N[C@@H](C)C(F)(F)F)c(F)c1", "note": "[Cevipabulin]", "values": [{"measurement": "inhibition at 10 µM", "result": 53.6, "unit": "%"}]}, {"smiles": "CC(C)(O)CC(=O)NCCn1ccc2ncnc(Nc3ccc(Oc4cccc(C(F)(F)F)c4)c(Cl)c3)c21", "note": "[TAK-285]", "values": [{"measurement": "inhibition at 10 µM", "result": 73, "unit": "%"}]}, {"smiles": "Nc1c2ccccc2nc2ccccc12", "note": "[AMINACRINE]", "values": [{"measurement": "inhibition at 10 µM", "result": 64.1, "unit": "%"}]}]}
